These results are taken from patent US20140163026A1, “8-ETHYL-6-(ARYL)PYRIDO[2,3-D]PYRIMIDIN-7(8H)-ONES FOR THE TREATMENT OF NERVOUS SYSTEM DISORDERS AND CANCER” (Afraxis Holdings, Inc., priority 2011, published 2014).

By IC50 is commonly meant the midpoint of a concentration-inhibition curve. A high value points to weaker potency in that assay.

Common to all, as to type: biochemical
The target of one assay is PAK1 (Homo sapiens, UniProt Q13153). Nature of the assay: In vitro PAK inhibition assay (SelectScreen, Ser/Thr 19 peptide). The gist of the method:
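Ten-point, 3-fold compound series at 1% final DMSO were incubated with enzyme, Ser/Thr 19 peptide and ATP for 60 min at room temperature. Buffer was HEPES pH 7.5 (50 mM) with 10 mM MgCl2, 1 mM EGTA, 0.01% BRIJ-35. A 60 min development step preceded the fluorescence read converted to % phosphorylation.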

A further assay addresses PAK2 (PAK65) (Homo sapiens, UniProt Q13177). Nature of the assay: In vitro PAK inhibition assay (SelectScreen, Ser/Thr 20 peptide). The gist of the method: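 Ten-point threefold compound dilutions (1% DMSO) were incubated with PAK2 (0.29-6 ng) and Ser/Thr 20 substrate (2 μM) for 60 min at room temperature in HEPES pH 7.5 buffer with MgCl2, EGTA and BRIJ-35.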
The target of another assay is PAK3 (Homo sapiens, UniProt O75914). The assay is described as above. In outline: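 Fluorescence-based development format: after a 60-min room-temperature kinase reaction and 60-min protease development, percent phosphorylation of Ser/Thr 20 peptide calculated via phosphopeptide controls. Buffer 50 mM HEPES pH 7.5, 10 mM MgCl2, 1 mM EGTA, 0.01% BRIJ-35; compounds at 1% DMSO, 10-point 3-fold dilution series.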
Sequence of PAK3 (O75914 whole entry): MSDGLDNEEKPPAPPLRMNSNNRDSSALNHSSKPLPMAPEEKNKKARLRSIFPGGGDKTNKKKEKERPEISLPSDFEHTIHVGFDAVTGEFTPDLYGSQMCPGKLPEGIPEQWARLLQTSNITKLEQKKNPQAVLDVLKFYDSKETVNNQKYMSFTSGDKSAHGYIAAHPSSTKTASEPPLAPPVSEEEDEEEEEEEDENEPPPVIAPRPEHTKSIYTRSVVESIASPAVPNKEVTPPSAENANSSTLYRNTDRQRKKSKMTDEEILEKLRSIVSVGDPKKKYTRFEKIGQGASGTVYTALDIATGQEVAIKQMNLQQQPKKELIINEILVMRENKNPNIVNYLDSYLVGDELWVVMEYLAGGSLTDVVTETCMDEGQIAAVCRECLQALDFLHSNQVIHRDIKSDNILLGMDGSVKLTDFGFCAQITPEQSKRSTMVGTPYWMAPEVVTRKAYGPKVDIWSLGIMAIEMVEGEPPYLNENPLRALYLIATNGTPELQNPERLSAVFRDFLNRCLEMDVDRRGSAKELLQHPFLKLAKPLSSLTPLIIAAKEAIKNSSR

Another assay concerns the target PAK4 (Homo sapiens, UniProt O96013). The assay is described as above. In outline:
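Ten-point, 3-fold compound series (1% DMSO) incubated 1 h at room temperature with PAK4 (0.1-0.75 ng) and 2 μM Ser/Thr 20 peptide, HEPES pH 7.5 buffer with MgCl2, EGTA, BRIJ-35. Development reagent cleaves non-phosphorylated peptide; fluorescence emission ratio gives % phosphorylation, fitted sigmoidally for IC50.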

Sequence of PAK1 (Q13153 whole entry): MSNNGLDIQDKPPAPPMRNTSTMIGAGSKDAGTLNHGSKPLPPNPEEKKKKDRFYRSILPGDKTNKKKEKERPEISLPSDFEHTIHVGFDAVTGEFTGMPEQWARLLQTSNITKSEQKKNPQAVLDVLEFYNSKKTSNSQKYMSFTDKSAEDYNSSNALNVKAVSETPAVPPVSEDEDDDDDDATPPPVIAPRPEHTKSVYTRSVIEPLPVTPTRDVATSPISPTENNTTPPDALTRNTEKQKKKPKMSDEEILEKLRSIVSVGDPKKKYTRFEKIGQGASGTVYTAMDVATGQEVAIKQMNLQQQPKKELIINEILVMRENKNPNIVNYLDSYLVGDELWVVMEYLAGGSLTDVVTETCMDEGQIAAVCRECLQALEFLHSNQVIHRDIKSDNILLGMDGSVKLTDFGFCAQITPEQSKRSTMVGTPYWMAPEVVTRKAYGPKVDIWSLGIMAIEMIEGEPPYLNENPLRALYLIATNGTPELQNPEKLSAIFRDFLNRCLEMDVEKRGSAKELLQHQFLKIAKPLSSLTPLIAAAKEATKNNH
Sequence of PAK4 (O96013 whole entry): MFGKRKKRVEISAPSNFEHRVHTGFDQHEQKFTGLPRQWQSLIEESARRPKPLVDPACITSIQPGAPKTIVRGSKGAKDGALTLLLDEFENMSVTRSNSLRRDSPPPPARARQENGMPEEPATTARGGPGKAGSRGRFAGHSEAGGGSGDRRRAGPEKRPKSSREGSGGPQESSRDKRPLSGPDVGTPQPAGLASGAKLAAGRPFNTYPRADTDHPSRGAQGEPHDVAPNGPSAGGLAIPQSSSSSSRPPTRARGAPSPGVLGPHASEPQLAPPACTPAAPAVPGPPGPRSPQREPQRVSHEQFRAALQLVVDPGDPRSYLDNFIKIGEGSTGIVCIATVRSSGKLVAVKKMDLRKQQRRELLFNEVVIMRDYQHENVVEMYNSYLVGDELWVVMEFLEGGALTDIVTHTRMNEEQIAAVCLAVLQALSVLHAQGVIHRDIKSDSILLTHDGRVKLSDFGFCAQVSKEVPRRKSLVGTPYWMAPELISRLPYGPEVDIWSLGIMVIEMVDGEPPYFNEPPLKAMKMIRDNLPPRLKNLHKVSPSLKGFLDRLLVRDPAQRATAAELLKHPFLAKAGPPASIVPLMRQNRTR
Sequence of PAK2 (PAK65) (Q13177 whole entry): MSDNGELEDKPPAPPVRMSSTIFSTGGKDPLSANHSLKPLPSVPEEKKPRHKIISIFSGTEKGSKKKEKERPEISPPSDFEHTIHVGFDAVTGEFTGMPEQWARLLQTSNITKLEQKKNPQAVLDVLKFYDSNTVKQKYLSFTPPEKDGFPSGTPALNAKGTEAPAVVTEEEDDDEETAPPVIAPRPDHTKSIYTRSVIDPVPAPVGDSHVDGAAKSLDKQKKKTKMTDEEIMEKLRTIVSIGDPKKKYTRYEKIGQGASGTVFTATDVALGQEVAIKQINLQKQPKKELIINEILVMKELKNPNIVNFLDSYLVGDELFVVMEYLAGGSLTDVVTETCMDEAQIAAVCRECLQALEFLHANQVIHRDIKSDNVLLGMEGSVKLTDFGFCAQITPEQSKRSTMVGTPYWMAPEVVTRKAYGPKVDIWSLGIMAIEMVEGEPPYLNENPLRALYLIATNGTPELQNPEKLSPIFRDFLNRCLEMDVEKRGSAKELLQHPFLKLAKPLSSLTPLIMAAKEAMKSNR

As to `CCn1c(=O)c(-c2ccc(-c3ccsc3)cc2Cl)cc2cnc(Nc3ccc(N4CCN(C)CC4)cc3)nc21`, the IC50 on PAK1 is under 50 nM; against PAK2 (PAK65), under 50 nM; at PAK3, under 50 nM; at PAK4, at least 5000 nM.
Regarding `CCn1c(=O)c(-c2ccc(-c3ccc(C)s3)cc2Cl)cc2cnc(Nc3ccc(N4CCN(C)CC4)cc3)nc21`, the IC50 against PAK1 was under 50 nM; at PAK2 (PAK65), under 50 nM; against PAK3 it was 50 to 500 nM; against PAK4, at least 5000 nM.
As for `CCn1c(=O)c(-c2ccc(-c3noc(C)n3)cc2Cl)cc2cnc(Nc3ccc(C4CCN(C(C)C)CC4)cc3)nc21`, the concentration for half-maximal inhibition (IC50) against PAK1 was under 50 nM; against PAK2 (PAK65), under 50 nM; against PAK3, under 50 nM; against PAK4, 500 to 5000 nM.
With `CCn1c(=O)c(-c2ccc(-c3ccnc(C)c3)cc2Cl)cc2cnc(Nc3ccc(C4CCN(C)CC4)c(F)c3)nc21`, the half-inhibitory concentration (IC50) was under 50 nM on PAK1, under 50 nM against PAK2 (PAK65), 50 to 500 nM on PAK3 and at least 5000 nM against PAK4.
As to `Cc1ncccc1-c1ccc(-c2cc3cnc(Nc4ccc(C5CCN(C)CC5)cc4)nc3n(C)c2=O)c(Cl)c1`, the IC50 at PAK1 was under 50 nM; against PAK2 (PAK65) it was under 50 nM; against PAK3, 50 to 500 nM; against PAK4, at least 5000 nM.
Regarding `CCN1CCC(c2ccc(Nc3ncc4cc(-c5ccc(-c6ccnc(C)c6)cc5Cl)c(=O)n(CC)c4n3)cc2F)CC1`, the IC50 was under 50 nM against PAK1, under 50 nM on PAK2 (PAK65), under 50 nM on PAK3 and 500 to 5000 nM against PAK4.
`CCn1c(=O)c(-c2ccc(-c3noc(C)n3)cc2Cl)cc2cnc(Nc3ccc(C4CCN(C)CC4)c(F)c3)nc21`: the IC50 against PAK1 is under 50 nM; against PAK2 (PAK65), under 50 nM; against PAK3, under 50 nM; against PAK4, 500 to 5000 nM.
As for `CCn1c(=O)c(-c2ccc(-c3ccc(C)nc3F)cc2Cl)cc2cnc(Nc3ccc(C4CCN(C)CC4)c(F)c3)nc21`, the IC50 on PAK1 lay in the range of 50 to 500 nM; against PAK2 (PAK65) it was 50 to 500 nM; against PAK3, 50 to 500 nM; on PAK4 it was 500 to 5000 nM.
For `CCn1c(=O)c(-c2ccc(-c3ccc(F)nc3C)cc2Cl)cc2cnc(Nc3ccc(C4CCN(C)CC4)c(F)c3)nc21`, the IC50 against PAK1 is 50 to 500 nM; against PAK2 (PAK65), 50 to 500 nM; against PAK3, 50 to 500 nM; at PAK4, at least 5000 nM.
For `CCn1c(=O)c(-c2ccc(-c3ccnc(C(=O)NC)c3)cc2Cl)cc2cnc(Nc3ccc(C4CCN5CCCC5C4)cc3)nc21` (stereo not shown), the IC50 against PAK1 was 50 to 500 nM; against PAK2 (PAK65), 50 to 500 nM; at PAK3 it was 50 to 500 nM; on PAK4 it was at least 5000 nM.
As to `CCn1c(=O)c(-c2ccc(-c3cnc(C)s3)cc2Cl)cc2cnc(Nc3ccc(CCN(C)C)cc3)nc21`, the IC50 on PAK1 is under 50 nM; on PAK2 (PAK65) it was under 50 nM; on PAK3, under 50 nM; on PAK4, 500 to 5000 nM.
As for `Cc1ncccc1-c1ccc(-c2cc3cnc(Nc4ccc(CCN(C)C)cc4)nc3n(C)c2=O)c(Cl)c1`, the IC50 against PAK1 is under 50 nM; against PAK2 (PAK65), 50 to 500 nM; at PAK3 it was 50 to 500 nM; against PAK4 it was at least 5000 nM.
On to `CCN1CCC(c2ccc(Nc3ncc4cc(-c5ccc(-c6noc(C)n6)cc5Cl)c(=O)n(C)c4n3)cc2)CC1`, for which the IC50 is under 50 nM against PAK1, under 50 nM at PAK2 (PAK65), under 50 nM against PAK3 and at least 5000 nM against PAK4.
Turning to `Cc1nc(-c2ccc(-c3cc4cnc(Nc5ccc(CCN(C)C)cc5)nc4n(C)c3=O)c(Cl)c2)no1`, the IC50 is under 50 nM against PAK1, under 50 nM against PAK2 (PAK65), under 50 nM on PAK3 and at least 5000 nM on PAK4.
As to `Cc1ncc(-c2ccc(-c3cc4cnc(Nc5ccc(C6CCN(C)CC6)cc5)nc4n(C)c3=O)c(Cl)c2)s1`, the IC50 against PAK1 was under 50 nM; against PAK2 (PAK65) it was under 50 nM; on PAK3, 50 to 500 nM; against PAK4, at least 5000 nM.
On to `Cc1ncc(-c2ccc(-c3cc4cnc(Nc5ccc(CCN(C)C)cc5)nc4n(C)c3=O)c(Cl)c2)s1`, for which the IC50 at PAK1 is under 50 nM; against PAK2 (PAK65) it was under 50 nM; against PAK3, under 50 nM; against PAK4, at least 5000 nM.
Turning to `CCn1c(=O)c(-c2ccc(-c3ccc(C)nc3)cc2Cl)cc2cnc(Nc3ccc(C4CCN5CCCC5C4)cc3)nc21` (stereo not shown), the IC50 was under 50 nM against PAK1, under 50 nM on PAK2 (PAK65), 50 to 500 nM against PAK3 and 500 to 5000 nM against PAK4.
With `CCn1c(=O)c(-c2ccc(-c3ccnc(C)c3)cc2Cl)cc2cnc(Nc3ccc(C4CCN5CCCC5C4)cc3)nc21` (stereo not shown), the IC50 against PAK1 is under 50 nM; on PAK2 (PAK65), 50 to 500 nM; against PAK3 it was 50 to 500 nM; at PAK4, at least 5000 nM.
In the case of `CCn1c(=O)c(-c2ccc(-c3cnc(C)s3)cc2Cl)cc2cnc(Nc3ccc(C4CCN5CCCC5C4)cc3)nc21` (stereo not shown), the IC50 against PAK1 was under 50 nM; against PAK2 (PAK65), under 50 nM; at PAK3 it was under 50 nM; on PAK4, 500 to 5000 nM.
Consider `CCN1CCC(c2ccc(Nc3ncc4cc(-c5ccc(-c6cccnc6C)cc5Cl)c(=O)n(C)c4n3)cc2)CC1`, for which the IC50 against PAK1 is under 50 nM; on PAK2 (PAK65), 50 to 500 nM; at PAK3, 50 to 500 nM; at PAK4 it was at least 5000 nM.
As for `CNC(=O)c1cc(-c2ccc(-c3cc4cnc(Nc5ccc(C6CCN(C)CC6)cc5)nc4n(C)c3=O)c(Cl)c2)ccn1`, the IC50 against PAK1 was 50 to 500 nM; against PAK2 (PAK65), 50 to 500 nM; on PAK3, 500 to 5000 nM; on PAK4 it was at least 5000 nM.
For `CNC(=O)c1cc(-c2ccc(-c3cc4cnc(Nc5ccc(CCN(C)C)cc5)nc4n(C)c3=O)c(Cl)c2)ccn1`, the IC50 is 50 to 500 nM on PAK1, 50 to 500 nM at PAK2 (PAK65), 500 to 5000 nM on PAK3 and at least 5000 nM on PAK4.
As for `CNC(=O)c1cc(-c2ccc(-c3cc4cnc(Nc5ccc(C6CCNCC6)cc5)nc4n(C)c3=O)c(Cl)c2)ccn1`, the IC50 against PAK1 fell in the range of 50 to 500 nM; against PAK2 (PAK65), 50 to 500 nM; at PAK3 it was 50 to 500 nM; at PAK4, 500 to 5000 nM.
For `CN1CCC(c2ccc(Nc3ncc4cc(-c5ccc(-c6cccnc6F)cc5Cl)c(=O)n(C)c4n3)cc2)CC1`, the IC50 against PAK1 is under 50 nM; on PAK2 (PAK65), under 50 nM; at PAK3 it was under 50 nM; on PAK4 it was at least 5000 nM.
Regarding `CN(C)CCc1ccc(Nc2ncc3cc(-c4ccc(-c5cccnc5F)cc4Cl)c(=O)n(C)c3n2)cc1`, the IC50 on PAK1 is under 50 nM; against PAK2 (PAK65), under 50 nM; on PAK3 it was under 50 nM; against PAK4, 500 to 5000 nM.
In the case of `CCn1c(=O)c(-c2ccc(-c3ccc(F)nc3C)cc2Cl)cc2cnc(Nc3ccc(C4CCNCC4)c(F)c3)nc21`, the IC50 was 50 to 500 nM at PAK1, 50 to 500 nM against PAK2 (PAK65), 50 to 500 nM against PAK3 and at least 5000 nM against PAK4.
For `CCn1c(=O)c(-c2ccc(-c3noc(C)n3)cc2Cl)cc2cnc(Nc3ccc(CCN4CCCC4)cc3)nc21`, the IC50 was under 50 nM on PAK1, under 50 nM against PAK2 (PAK65), under 50 nM against PAK3 and 500 to 5000 nM at PAK4.
With `CCn1c(=O)c(-c2ccc(-c3cccnc3C)cc2Cl)cc2cnc(Nc3ccc(CCN4CCCC4)cc3)nc21`, the IC50 at PAK1 was under 50 nM; on PAK2 (PAK65), under 50 nM; against PAK3, 50 to 500 nM; against PAK4 it was at least 5000 nM.
